Test results as given in patent US20250326742A1, “THERAPEUTIC COMPOUNDS” (RUTGERS, THE STATE UNIVERSITY OF NEW JERSEY, priority 2024, published 2025).

Tests used:
[1] = target: SARS-CoV-2 PLpro (Severe acute respiratory syndrome coronavirus 2, UniProt P0DTD1); assay: biochemical; conditions: 200 nM PLpro, 10 μM FRET substrate, 30 min preincubation at 30° C.
Experimental: FRET-Based PL^pro Enzymatic Assay
The SARS-CoV-2 PL^pro enzymatic assays were carried out as follows: The assay was assembled in 96-well plates with 100 μl of 200 nM PL^Pro protein in PL^Pro reaction buffer [50 mM Hepes (pH 7.5), 0.01% Triton X-100, and 5 mM DTT]. Then, 1 μl of testing compound at various concentrations was added to each well and incubated at 30° C. for 30 minutes. The enzymatic reaction was initiated by adding 1 μl of 1 mM FRET substrate (the final substrate concentration is 10 μM). The reaction was monitored in a Cytation 5 image reader with filters for excitation at 360/40 nm and emission at 460/40 nm at 30° C. for 1 hour. The initial velocity of the enzymatic reaction with and without testing compounds was calculated by linear regression for the first 15 minutes of the kinetic progress curve. The ICso values were calculated by plotting the initial velocity against various concentrations of testing compounds with a dose-response function in Prism 8 software.

[2] = Cytotoxicity assay in Vero E6 cells (neutral red uptake); format: cell-based; conditions: African green monkey, 2 days at 37° C.
Experimental: (§1) Cytotoxicity Assay in Vero E6 Cells
(§2) Briefly, 80,000 cells/ml of the tested cell lines were dispensed into 96-well cell culture plates at 100 μl per well. Twenty-four hours later, the growth medium was removed and washed with 150 μl of PBS buffer. Two hundred microliters of fresh serum-free medium containing serial diluted compounds was added to each well. After incubating for 2 days at 37° C., the medium was removed and replaced with 100 μl of DMEM medium containing neutral red (40 μg/ml) and incubated for 2 to 4 hours at 37° C. The amount of neutral red taken up was determined by measuring the absorbance at 540 nm using a Multiskan FC Microplate Photometer (Thermo Fisher Scientific). The CC50 values were calculated from best-fit dose-response curves with variable slope in Prism 8.

[3] = tested on: SARS-CoV-2 viral replication; conditions: cited from earlier work
[4] = tested on: Vero E6 cells; assay: Cytotoxicity assay in Vero E6 cells (neutral red uptake); format: cell-based; conditions: 2 days at 37° C.
Experimental: as §1, §2

With `CCOC(=O)/C=C/C(=O)NCC(=O)NCc1ccccc1C(=O)NC1(c2cc(-c3cnn(C)c3)cc(-c3ccn(CC)n3)c2)CC1` [Example 23, ethyl (E)-4-((2-((2-((1-(3-(1-ethyl-1H-pyrazol-3-yl)-5-(1-methyl-1H-pyrazol-4-yl)phenyl)cyclopropyl)carbamoyl)benzyl)amino)-2-oxoethyl)amino)-4-oxobut-2-enoate] the IC50 [1] was 1 to 5 µM and the CC50 at 2 days [2] was over 500 µM.

With `CCn1ccc(-c2cc(-c3cnn(C)c3)cc(C3(NC(=O)c4ccccc4CNC(=O)CNC(=O)/C=C/C(=O)N4CC(F)(F)C4)CC3)c2)n1` [Example 24, (E)-2-((2-(4-(3,3-difluoroazetidin-1-yl)-4-oxobut-2-enamido)-acetamido)methyl)-N-(1-(3-(1-ethyl-1H-pyrazol-3-yl)-5-(1-methyl-1H-pyrazol-4-yl)phenyl)cyclopropyl)benzamide] the IC50 [1] was 1 to 5 µM and the CC50 at 2 days [2] was over 500 µM.

`CCn1ccc(-c2cc(-c3cnn(C)c3)cc([C@@H](C)NC(=O)c3ccccc3CNC(=O)CNC(=O)/C=C/C(=O)N3CC(F)(F)C3)c2)n1` [Example 25, (R,E)-2-((2-(4-(3,3-difluoroazetidin-1-yl)-4-oxobut-2-enamido)acetamido)methyl)-N-(1-(3-(1-ethyl-1H-pyrazol-3-yl)-5-(1-methyl-1H-pyrazol-4-yl)phenyl)ethyl)benzamide] gave an IC50 [1] of under 1 µM and a CC50 at 2 days [2] of over 500 µM.

Work on `CCn1ccc(-c2cc(-c3cnn(C)c3)cc([C@@H](C)NC(=O)c3ccccc3CCC(=O)NNC(=O)C34CC(C3)C4)c2)n1` [Example 27, (R)-2-(3-(2-(bicyclo[1.1.1]pentane-1-carbonyl)hydrazineyl)-3-oxopropyl)-N-(1-(3-(1-ethyl-1H-pyrazol-3-yl)-5-(1-methyl-1H-pyrazol-4-yl)phenyl)ethyl)benzamide] yielded an IC50 [1] of over 5 µM and a CC50 at 2 days [2] of over 250 µM.

With `CCn1ccc(-c2cc(-c3cnn(C)c3)cc([C@@H](C)NC(=O)c3ccccc3CCC(=O)NCC(=O)CF)c2)n1` [Example 28, (R)-N-(1-(3-(1-ethyl-1H-pyrazol-3-yl)-5-(1-methyl-1H-pyrazol-4-yl)phenyl)ethyl)-2-(3-((3-fluoro-2-oxopropyl)amino)-3-oxopropyl)benzamide] the IC50 [1] was over 5 µM and the CC50 at 2 days [2] was over 250 µM.

With `C=CC(=O)NCC(=O)NCc1ccccc1C(=O)N[C@H](C)c1cc(-c2cnn(C)c2)cc(-c2ccn(C)n2)c1` [Example 29, (R)-2-((2-acrylamidoacetamido)methyl)-N-(1-(3-(1-methyl-1H-pyrazol-3-yl)-5-(1-methyl-1H-pyrazol-4-yl)phenyl)ethyl)benzamide] the IC50 [1] was over 5 µM and the CC50 at 2 days [2] was over 500 µM.

In the case of `C=CS(=O)(=O)NCC(=O)NCc1ccccc1C(=O)N[C@H](C)c1cc(-c2cnn(C)c2)cc(-c2ccn(C)n2)c1` [Example 30, (R)-N-(1-(3-(1-methyl-1H-pyrazol-3-yl)-5-(1-methyl-1H-pyrazol-4-yl)phenyl)ethyl)-2-((2-(vinylsulfonamido)acetamido)methyl)benzamide], the IC50 [1] is reported as under 1 µM and the CC50 at 2 days [2] is reported as over 250 µM.

`C[C@@H](NC(=O)c1ccccc1CNC(=O)CNC(=O)CC#N)c1cc(-c2cnn(C)c2)cc(-c2ccn(C)n2)c1` [Example 31, (R)-2-((2-(2-cyanoacetamido)acetamido)methyl)-N-(1-(3-(1-methyl-1H-pyrazol-3-yl)-5-(1-methyl-1H-pyrazol-4-yl)phenyl)ethyl)benzamide] showed an IC50 [1] of over 5 µM and a CC50 at 2 days [2] of over 500 µM.

For `Cc1ccc(N)cc1C(=O)N[C@H](C)c1cccc2ccccc12` [GRL0617], the EC50 [3] is listed as about 20 µM.

With “(R)-2-(3-((2-Cyanoethyl)amino)-3-oxopropyl)-N-(1-(3-(1-ethyl-1H-pyrazol-3-yl)-5-(1-methyl-1H-pyrazol-4-yl)phenyl)ethyl)benzamide [Example 1]” the IC50 [1] was over 5 µM and the CC50 [4] was 146 µM.
